The text below walks through data of patent US20030114529A1, “Hydroxamic acid thrombospondin peptide analog that inhibits aggrecanase activity” (priority 2001, published 2003).

One assay deals with T1, Collagenase MMP-1 (Homo sapiens, UniProt P03956).
T1 sequence (P03956 100-469): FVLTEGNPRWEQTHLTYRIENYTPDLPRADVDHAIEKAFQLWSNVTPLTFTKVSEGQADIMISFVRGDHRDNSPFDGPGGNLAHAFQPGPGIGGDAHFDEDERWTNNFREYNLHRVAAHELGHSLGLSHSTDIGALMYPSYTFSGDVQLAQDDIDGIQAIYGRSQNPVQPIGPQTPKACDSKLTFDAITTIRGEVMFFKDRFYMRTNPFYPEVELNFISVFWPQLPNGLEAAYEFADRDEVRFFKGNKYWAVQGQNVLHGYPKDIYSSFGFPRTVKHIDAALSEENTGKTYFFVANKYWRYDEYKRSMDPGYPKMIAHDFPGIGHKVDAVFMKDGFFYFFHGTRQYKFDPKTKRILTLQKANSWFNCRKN
The assay can be described thus: Inhibition of collagenase MMP-1 by hydroxamic acids. In kind it is biochemical. As to conditions: for Ki: Ki = IC50/(1 + [S]/Km), read-out: Apparent Ki Collagenase MMP-1.

Assay [1] relates to ADAMTS-4/ADAMTS-5 (aggrecanase). The assay can be described thus: Inhibition of aggrecan cleavage at Glu1480-Gly1481 by recombinant ADAMTS-4/ADAMTS-5 (Western blot, densitometry). The assay is classed as biochemical, Human. As to conditions: aggrecan 500 nM, enzyme 5 nM, 2 hours, 37° C.; Ki = IC50/(1 + [S]/Km); read-out: Apparent Ki aggrecanase ADAM-TS4/5. Here is the method: A series of newly synthesized hydroxamic acids (FIG. 1) were tested for their ability to inhibit recombinant ADAMTS-4/ADAM-TS5 as well a several matrix metalloproteinases (MMPs). In this study aggrecan, at a concentration of 500 nM, was incubated for 2 hours at 37° C. with 5 nM of either ADAMTS-4/ADAM-TS5 in the presence or absence of one of the hydroxamic acids at a concentration range from 0.1 to 1000 nM. Subsequently, the fractions were analysed for cleavage of aggrecan at the Glu^1480-^1481Gly site by Western Blot analysis, using a specific antibody recognizing the new C-terminus GELE^1480. Inhibition of cleavage was determined by scanning densitometry and the Ki values were determined (Table 1).
Digestions were carried out in 100 μl of 50 mM Tris/HCl buffer, pH 7.5, containing 100 mM NaCl and 10 mM CaCl2. Human recombinant ADAMTS-4/ADAMTS-5 were prepared as described (1, 2). Purified bovine aggrecan (12) (500 nM) was incubated with 5 nM ADAMTS-4/ADAMTS-5 at 37° C. for 2 hours, in the absence or presence of each of the hydroxamates described above, at concentrations ranging from […]. Following the incubation, cleavage of aggrecan at the Glu^1480-^1481Gly bond was monitored by Western Blot analysis, using the neoepitope antibody that recognizes the new C-terminus GELE^1480, as previously described (12).
Background: In western blotting, separated proteins are transferred to a membrane and probed.

A further assay addresses stromelysin MMP-3 (Homo sapiens, UniProt P08254). The assay can be described thus: Inhibition of stromelysin MMP-3 by hydroxamic acids. The assay is classed as biochemical. As to conditions: for Ki: Ki = IC50/(1 + [S]/Km), read-out: Apparent Ki stromelysin MMP-3.
A further assay concerns the target T2, gelatinase MMP-2 (Homo sapiens, UniProt P08253).
T2 sequence (P08253 110-660): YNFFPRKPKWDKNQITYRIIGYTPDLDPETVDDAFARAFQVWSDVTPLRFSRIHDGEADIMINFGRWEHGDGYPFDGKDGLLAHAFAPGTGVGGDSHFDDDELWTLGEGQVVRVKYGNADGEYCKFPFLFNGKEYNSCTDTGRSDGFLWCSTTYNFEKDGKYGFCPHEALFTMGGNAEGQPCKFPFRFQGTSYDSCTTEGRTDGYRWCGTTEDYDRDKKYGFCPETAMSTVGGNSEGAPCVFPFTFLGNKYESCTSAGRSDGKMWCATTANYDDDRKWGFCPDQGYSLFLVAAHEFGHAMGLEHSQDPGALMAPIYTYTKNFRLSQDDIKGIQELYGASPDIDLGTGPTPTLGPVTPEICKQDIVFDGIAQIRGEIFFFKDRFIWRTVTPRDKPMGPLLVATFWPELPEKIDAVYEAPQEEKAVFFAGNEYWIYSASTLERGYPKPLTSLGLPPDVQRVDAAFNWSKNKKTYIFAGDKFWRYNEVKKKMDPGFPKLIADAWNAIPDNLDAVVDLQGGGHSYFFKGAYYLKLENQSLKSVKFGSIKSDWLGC
The assay can be described thus: Inhibition of gelatinase MMP-2 by hydroxamic acids. As to conditions: for Ki: Ki = IC50/(1 + [S]/Km), read-out: Apparent Ki gelatinase MMP-2. The assay is classed as biochemical.

Assay [2] concerns Pig articular cartilage explants. The assay can be described thus: IL-1 induced aggrecan degradation in pig articular cartilage explants (GAG release, DMMB assay). The assay is classed as cell-based. As to conditions: 72 hours; for IC50: Sus scrofa, pig explants, IL-1α, inhibitor 0.1 to 10 μM. Here is the method:
(§1) The same compounds were tested for the ability to block aggrecan cleavage in an in vitro model of cartilage degradation. Pig articular cartilage explants were cultured for 72 hours in the presence of IL-α, with or without one of the inhibitors at a concentration range og 0.1 to 10 μM. Culture media were assessed for the level of glycosaminoglycan chains (GAG) by dimethyl methylene blue (DMMB) assay, as a measure of aggrecan breakdown and IC50 values were calculated (Table 1). […] Therefore, we tested JWD40 for its ability to prevent aggrecan degradation in osteoarthritic (OA) cartilage. Human OA cartilage explants were cultured with or without JWD40, 0.1 to 10 μM. After 48 hours, media were analyzed for the presence of aggrecan products generated by cleavage by aggrecanase, containing the new N-terminus ^374ARGSV.
Articular cartilage was dissected from the knees of young pigs. Cartilage was allowed to equilibrate for 3 days in DMEM supplemented with 10% FCS, penicillin (100 U/ml) and streptomycin (100 μg/ml). Subsequently, cartilage was cut into 3×3 mm explants, weighing approximately 10-20 mg each, and incubated in 96-well plates for 72 hours with either control medium (serum-free DMEM),ml), IL-1α (100 ng/ml), or IL-1α (100 ng/ml) plus a series of hydroxamic acids at a concentration range of 0.1 μM to 10 μM. At the end of the culture period, glycosaminoglycan (GAG) levels in the culture media were determined by dimethylmethylene blue (DMMB) assay, as described by Farndale et al (13).

In assay [3] the test system is Human OA cartilage explants. The assay can be described thus: Aggrecanase-generated aggrecan fragment release from human osteoarthritic cartilage explants. In kind it is cell-based. As to conditions: 0.1 to 10 μM, 48 hours. Here is the method:
as §1
Articular cartilage was dissected from the hips of patients with osteoarthritis at the time of joint replacement. Cartilage was allowed to equilibrate for 3 days in DMEM supplemented with penicillin (100 U/ml) and streptomycin (100 μg/ml). […] At the end of the culture period, the media were analyzed for aggrecan fragments generated by cleavage of aggrecan by aggrecanase, using a neoepitope that recognizes the new N-terminus […] (14).

For another assay, the system named is aggrecanase-1 (ADAMTS4). The assay can be described thus: Protection of native aggrecan from cleavage by full length aggrecanase-1 (Western blot, MAB2035). As to conditions: peptide 100 μM, ADAMTS4 5 nM, aggrecan 500 nM, 5 hours, 37° C. In kind it is biochemical. Here is the method:
An aggrecan binding peptide sequence derived from thrombospondin motif of aggrecanase-1 was tested for its ability to protect aggrecan from degradation by aggrecanase. Full length aggrecanase-1 (ADAMTS4), 5 nM, was incubated with native aggrecan, 500 nM, for 5 hours at 37° C. in the presence of the thrombospondin peptide GGWGPWGPWGDCSRTCGGG, 100 μM (Seq. No. 14). Aggrecan cleavage products were measured by Western blot analysis using the monoclonal antibody MAB2035.

Setting [4] is: compared with Ki against aggrecanase.

Chain of stromelysin MMP-3 (P08254 100-477): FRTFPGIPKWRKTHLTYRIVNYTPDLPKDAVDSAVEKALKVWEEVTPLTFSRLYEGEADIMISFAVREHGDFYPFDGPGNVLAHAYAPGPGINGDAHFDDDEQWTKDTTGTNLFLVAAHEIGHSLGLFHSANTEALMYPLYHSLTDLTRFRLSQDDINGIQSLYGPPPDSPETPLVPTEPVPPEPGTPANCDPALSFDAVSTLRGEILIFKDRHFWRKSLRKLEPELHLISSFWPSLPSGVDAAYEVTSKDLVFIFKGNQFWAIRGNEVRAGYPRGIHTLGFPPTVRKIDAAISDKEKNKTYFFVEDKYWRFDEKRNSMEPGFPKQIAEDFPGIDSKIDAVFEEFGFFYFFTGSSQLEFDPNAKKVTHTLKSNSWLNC

In the case of `CNC(=O)C(Cc1ccccc1)NC(=O)C(CC(=O)O)CC(C)C` (stereo not shown) [JWD-18], the Ki on Collagenase MMP-1 is 0.995 µM; in assay [1], > 10 µM; on stromelysin MMP-3, > 1 µM; at gelatinase MMP-2 it was > 1 µM. For the same compound, the concentration for half-maximal inhibition (IC50) (as a rule, the concentration at which inhibition is half-maximal) in assay [2] was > 100 µM.

For the compound `CNC(=O)C(Cc1ccc(OCc2ccccc2)cc1)NC(=O)C(CC(=O)NO)CC(C)C` (stereo not shown) [JWC-100], the Ki at Collagenase MMP-1 is 0.001 µM; in assay [1], 0.16 µM; on stromelysin MMP-3, 0.0009 µM; at gelatinase MMP-2, < 0.0001 µM. The half-inhibitory concentration (IC50) in assay [2] is 6 µM.

As to `CNC(=O)C(CCc1ccccc1)NC(=O)C(CC(=O)NO)CC(C)C` (stereo not shown) [JWC-97], the Ki at Collagenase MMP-1 turned out to be 0.0074 µM; in assay [1] it was 0.062 µM; on stromelysin MMP-3, 0.135 µM; on gelatinase MMP-2, 0.0023 µM. The same compound gave a 50% inhibitory concentration (IC50) in assay [2] of 1.8 µM.

As to `CNC(=O)[C@@H](NC(=O)[C@@H](CC(=O)NO)CC(C)C)C(C)C` [JWD-40], the Ki worked out at 0.026 µM at Collagenase MMP-1, 0.017 µM in assay [1], 0.125 µM on stromelysin MMP-3 and 0.036 µM on gelatinase MMP-2. Also, the “Potency against MMP-1 relative to aggrecanase” value at Collagenase MMP-1 (setting [4]) is on record as “twofold less potent”. Moreover, the “Release of aggrecanase-generated fragment with N-terminus 374ARGSV” value in assay [3] is “blocked the release of this fragment in a concentration-dependent manner”. Also, the “Potency against MMP-3 relative to aggrecanase” value on stromelysin MMP-3 (setting [4]) is given as “a log less potency”. At gelatinase MMP-2 (setting [4]), the “Potency against MMP-2 relative to aggrecanase” value was “twofold less potent”. The compound also returned an IC50 in assay [2] of 2.05 µM. Also, the “Protection against IL-1 induced aggrecan degradation” value in assay [2] (pig articular cartilage explants) is “very effective”.

GGWGPWGPWGDCSRTCGGG: the “Protection of aggrecan from cleavage by aggrecanase” value in the assay with aggrecanase-1 (ADAMTS4) was “protects aggrecan from cleavage by aggrecanase”.

`CNC(=O)C(C)NC(=O)C(CC(=O)NO)CC(C)C` (stereo not shown) [JWD-52]: the values for the Ki (at Collagenase MMP-1; in assay [1]; at gelatinase MMP-2) were 0.076 µM, 0.035 µM and 0.059 µM, respectively.

In the case of `CNC(=O)C(Cc1ccc(F)cc1)NC(=O)C(CC(=O)NO)CC(C)C` (stereo not shown) [JWC-95], the Ki at Collagenase MMP-1 came out at 0.0059 µM; in assay [1], 0.098 µM; at stromelysin MMP-3, 0.065 µM; at gelatinase MMP-2 it was 0.0023 µM. For the same compound, the IC50 in assay [2] worked out at 2.9 µM.
